# Read-outs that look alike come from different tables or passages of the source.
# Assays:
# rat CB2 receptors = rat CB2 receptors (Rattus norvegicus (Rat), UniProt Q9QZN9); assay: rat CB2 radioligand binding assay ([3H]CP 55,940 competition); conditions: HEK293 membranes, 0.5 nM [3H]CP 55,940
# Description: (§1) The CB1 and CB2 radioligand binding assays described herein are utilized to ascertain the affinity of compounds of the present application for binding to CB2 relative to CB1 receptors.
# HEK293 cells stably expressing rat CB2 receptors were grown until a confluent monolayer was formed. Briefly, the cells were harvested and homogenized in TE buffer (50 mM Tris-HCl, 1 mM MgCl2, and 1 mM EDTA) using a polytron for 2×10 second bursts in the presence of protease inhibitors, followed by centrifugation at 45,000×g for 20 minutes. The final membrane pellet was re-homogenized in storage buffer (50 mM Tris-HCl, 1 mM MgCl2, and 1 mM EDTA and 10% sucrose) and frozen at −78° C. until used. Saturation binding reactions were initiated by the addition of membrane preparation (protein concentration of 20 μg/well for rat CB2) into wells of a deep well plate containing [^3H]CP 55,940 (120 Ci/mmol, a nonselective CB agonist commercially available from Tocris) in assay buffer (50 mM Tris, 2.5 mM EDTA, 5 mM MgCl2, and 0.5 mg/mL fatty acid free BSA, pH 7.4). After 45 min incubation at 30° C., binding reaction was terminated by the addition of 300 μl/well of cold assay buffer followed by rapid vacuum filtration through a UniFilter-96 GF/C filter plates (pre-soaked in 1 mg/mL BSA for 2 hours). The bound activity was counted in a TopCount using Microscint-20. Saturation experiments were conducted with twelve concentrations of [^3H]CP 55,940 ranging from 0.01 to 8 nM. Competition experiments were conducted with 0.5 nM [^3H]CP 55,940 and five concentrations of displacing ligands selected from the range of 0.01 nM to 10 μM. The addition of 10 μM unlabeled CP 55,940 (Tocris, Ellisville, Mo.) was used to assess nonspecific binding.
# [1] = biological target: rat CB2 receptors (HEK cells) (Rattus norvegicus (Rat), UniProt Q9QZN9); assay: rat CB2 cyclase functional assay (HitHunter cAMP); assay type: cell-based
# Description: (§2) The cyclase functional assays were performed using the HitHunter™ cAMP assay kit from DiscoveRx (Fremont, Calif.) according to vendor's protocol. Briefly, HEK cells expressing CB2 or CB1 receptors (rat or human) were detached using cell dissociation buffer (Invitrogen, Carlsbad, Calif.), dispersed and placed in suspension at 10,000 cells per well in 96 well plates prior to the assay. Cell suspensions were incubated at 37° C. for 20 min with variable concentrations of test ligands and or 10 μM CP 55,940-positive control in the presence of a fixed concentration of forskolin (18 μM for rat CB2 and 37 μM for rat CB1) in Dulbescco's phosphate-buffered saline (Invitrogen, Carlsbad, Calif.) supplemented with bovine serum albumin (0.01% final concentration). The reactions were terminated by the addition of lysis buffer and the luminescence was detected following the procedure according to the manufacturer's instructions. EC50 values were calculated using sigmoidal dose-response curve fitting from Prism (GraphPad).
# human CB2 receptors = human CB2 receptors (Homo sapiens (Human), UniProt P34972); assay: human CB2 radioligand binding assay ([3H]CP 55,940 competition)
# human CB2 receptors, sequence (P34972 whole entry): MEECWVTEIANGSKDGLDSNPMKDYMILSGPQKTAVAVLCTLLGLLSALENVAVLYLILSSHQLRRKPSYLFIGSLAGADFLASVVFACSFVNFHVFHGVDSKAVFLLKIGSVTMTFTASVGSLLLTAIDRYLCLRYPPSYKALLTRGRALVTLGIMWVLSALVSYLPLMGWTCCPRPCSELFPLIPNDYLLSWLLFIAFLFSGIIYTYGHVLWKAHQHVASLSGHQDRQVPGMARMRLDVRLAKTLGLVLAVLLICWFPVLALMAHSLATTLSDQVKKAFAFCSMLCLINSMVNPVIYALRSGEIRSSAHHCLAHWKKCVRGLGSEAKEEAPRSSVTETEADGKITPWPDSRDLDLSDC
# Description: as §1
# HEK293 cells stably expressing human CB2 receptors were grown until a confluent monolayer was formed. Briefly, the cells were harvested and homogenized in TE buffer (50 mM Tris-HCl, 1 mM MgCl2, and 1 mM EDTA) using a polytron for 2×10 second bursts in the presence of protease inhibitors, followed by centrifugation at 45,000×g for 20 minutes. The final membrane pellet was re-homogenized in storage buffer (50 mM Tris-HCl, 1 mM MgCl2, and 1 mM EDTA and 10% sucrose) and frozen at −78° C. until used. Saturation binding reactions were initiated by the addition of membrane preparation (protein concentration of 5 μg/well for human CB2) into wells of a deep well plate containing [^3H]CP 55,940 (120 Ci/mmol, a nonselective CB agonist commercially available from Tocris) in assay buffer (50 mM Tris, 2.5 mM EDTA, 5 mM MgCl2, and 0.5 mg/mL fatty acid free BSA, pH 7.4). After 90 min incubation at 30° C., binding reaction was terminated by the addition of 300 μL/well of cold assay buffer followed by rapid vacuum filtration through a UniFilter-96 GF/C filter plates (pre-soaked in 1 mg/mL BSA for 2 hours). The bound activity was counted in a TopCount using Microscint-20. Saturation experiments were conducted with twelve concentrations of [^3H]CP 55,940 ranging from 0.01 to 8 nM. Competition experiments were conducted with 0.5 nM [^3H]CP 55,940 and five concentrations (0.01 nM to 10 μM) of displacing ligands. The addition of 10 μM unlabeled CP 55,940 (Tocris, Ellisville, Mo.) was used to assess nonspecific binding.
# [2] = biological target: rat CB1 receptors (HEK cells) (Rattus norvegicus (Rat), UniProt P20272); assay: rat CB1 cyclase functional assay (HitHunter cAMP); assay type: cell-based
# rat CB1 receptors (HEK cells), sequence (P20272 whole entry): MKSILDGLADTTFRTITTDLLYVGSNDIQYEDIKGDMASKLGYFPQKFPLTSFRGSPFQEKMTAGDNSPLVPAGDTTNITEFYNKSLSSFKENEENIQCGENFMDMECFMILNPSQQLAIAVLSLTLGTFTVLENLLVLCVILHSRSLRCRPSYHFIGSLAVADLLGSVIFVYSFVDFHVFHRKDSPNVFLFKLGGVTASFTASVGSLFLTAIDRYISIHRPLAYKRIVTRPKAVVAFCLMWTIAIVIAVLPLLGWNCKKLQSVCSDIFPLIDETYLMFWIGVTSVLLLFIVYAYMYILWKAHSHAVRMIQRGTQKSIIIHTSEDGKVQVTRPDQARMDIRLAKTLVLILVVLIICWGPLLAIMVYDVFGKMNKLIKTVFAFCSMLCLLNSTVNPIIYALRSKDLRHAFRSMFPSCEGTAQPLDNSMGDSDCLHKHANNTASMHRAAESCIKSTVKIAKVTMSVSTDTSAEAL
# Description: as §2
# [3] = HEK cells, forskolin 18 μM, read-out: rat CB2 cyclase (EC50)
# [4] = HEK293 membranes, 0.5 nM [3H]CP 55,940, read-out: human CB2 (Ki)
Structure (SMILES),Ki (rat CB2 receptors),"EC50 [1, 3]",Ki (human CB2 receptors; [4]),EC50 [2],EC50 [1],Ki (human CB2 receptors)
"CC(C)(C)c1cn(C[C@H]2CCCO2)/c(=N/C(=O)c2cc(C(F)(F)F)ccc2OC[C@H]2CCN2)s1 [Example 1, 2-[(2R)-azetidin-2-ylmethoxy]-N-[(2Z)-5-tert-butyl-3-[(2R)-tetrahydrofuran-2-ylmethyl]-1,3-thiazol-2(3H)-ylidene]-5-(trifluoromethyl)benzamide]",15 nM,2.26 nM,115 nM,9.33 µM,,
"CC(C)(C)c1cn(C[C@H]2CCCO2)/c(=N/C(=O)c2cc(C(F)(F)F)ccc2OC[C@@H]2CNCCO2)s1 [Example 66, N-[(2Z)-5-tert-butyl-3-[(2R)-tetrahydrofuran-2-ylmethyl]-1,3-thiazol-2(3H)-ylidene]-2-[(2S)-morpholin-2-ylmethoxy]-5-(trifluoromethyl)benzamide]",5.1 nM,,21 nM,5.05 µM,0.37 nM,
"CN1CC[C@H](COc2ccc(C(F)(F)F)cc2C(=O)/N=c2\sc(C(C)(C)C)cn2C[C@H]2CCCO2)C1 [Example 31, N-[(2Z)-5-tert-butyl-3-[(2R)-tetrahydrofuran-2-ylmethyl]-1,3-thiazol-2(3H)-ylidene]-2-{[(3 S)-1-methylpyrrolidin-3-yl]methoxy}-5-(trifluoromethyl)benzamide]",84 nM,,92 nM,10.7 µM,3.58 nM,
"CCN1CCC[C@H]1COc1ccc(C(F)(F)F)cc1C(=O)/N=c1\sc(C(C)(C)C)cn1C[C@H]1CCCO1 [Example 45, N-[(2Z)-5-tert-butyl-3-[(2R)-tetrahydrofuran-2-ylmethyl]-1,3-thiazol-2(3H)-ylidene]-2-{[(2S)-1-ethylpyrrolidin-2-yl]methoxy}-5-(trifluoromethyl)benzamide]",8.6 nM,0.83 nM,8.2 nM,5.01 µM,,
"CC(C)(C)c1cn(C[C@H]2CCCO2)/c(=N/C(=O)c2cc(C(F)(F)F)ccc2OCc2cnccn2)s1 [Example 19, N-[(2Z)-5-tert-butyl-3-[(2R)-tetrahydrofuran-2-ylmethyl]-1,3-thiazol-2(3H)-ylidene]-2-(pyrazin-2-ylmethoxy)-5-(trifluoromethyl)benzamide]",5 nM,0.41 nM,5 nM,3.39 µM,,
"CC(C)(O)CCOc1ccc(C(F)(F)F)cc1C(=O)/N=c1\sc(C(C)(C)C)cn1C[C@H]1CCCO1 [Example 50, N-[(2Z)-5-tert-butyl-3-[(2R)-tetrahydrofuran-2-ylmethyl]-1,3-thiazol-2(3H)-ylidene]-2-(3-hydroxy-3-methylbutoxy)-5-(trifluoromethyl)benzamide]",0.5 nM,,1.3 nM,1.87 µM,1.21 nM,
"CC(C)(C)c1cn(C[C@H]2CCCO2)/c(=N/C(=O)c2cc(C(F)(F)F)ccc2OC[C@@H]2CCCN2)s1 [Example 44, N-[(2Z)-5-tert-butyl-3-[(2R)-tetrahydrofuran-2-ylmethyl]-1,3-thiazol-2(3H)-ylidene]-2-[(2S)-pyrrolidin-2-ylmethoxy]-5-(trifluoromethyl)benzamide]",2 nM,,4.6 nM,4.73 µM,0.39 nM,
"CN1CCC[C@H]1COc1ccc(C#N)cc1C(=O)/N=c1\sc(C(C)(C)C)cn1C[C@H]1CCCO1 [Example 59, N-[(2Z)-5-tert-butyl-3-[(2R)-tetrahydrofuran-2-ylmethyl]-1,3-thiazol-2(3H)-ylidene]-5-cyano-2-{[(2S)-1-methylpyrrolidin-2-yl]methoxy}benzamide]",9.4 nM,0.13 nM,43 nM,2.27 µM,,
"CC(C)(C)c1cn(C[C@H]2CCCO2)/c(=N/C(=O)c2cc(C(F)(F)F)ccc2OCCNCCO)s1 [Example 58, N-[(2Z)-5-tert-butyl-3-[(2R)-tetrahydrofuran-2-ylmethyl]-1,3-thiazol-2(3H)-ylidene]-2-{2-[(2-hydroxyethyl)amino]ethoxy}-5-(trifluoromethyl)benzamide]",10 nM,,34 nM,2.58 µM,0.18 nM,
"CN1CC[C@@H](COc2ccc(C(F)(F)F)cc2C(=O)/N=c2\sc(C(C)(C)C)cn2C[C@H]2CCCO2)C1 [Example 30, N-[(2Z)-5-tert-butyl-3-[(2R)-tetrahydrofuran-2-ylmethyl]-1,3-thiazol-2(3H)-ylidene]-2-{[(3R)-1-methylpyrrolidin-3-yl]methoxy}-5-(trifluoromethyl)benzamide]",29 nM,,141 nM,12.1 µM,4.98 nM,
"CC(COc1ccc(C(F)(F)F)cc1C(=O)/N=c1\sc(C(C)(C)C)cn1C[C@H]1CCCO1)=NOC1CCCCO1 (stereo partly drawn) [Example 63, N-[(2Z)-5-tert-butyl-3-[(2R)-tetrahydrofuran-2-ylmethyl]-1,3-thiazol-2(3H)-ylidene]-2-({2-[(tetrahydro-2H-pyran-2-yloxy)imino]propyl}oxy)-5-(trifluoromethyl)benzamide]",6.6 nM,2.15 nM,,> 27 µM,,25 nM
"CC(C)(C)c1cn(C[C@H]2CCCO2)/c(=N/C(=O)c2cc(C(F)(F)F)ccc2OCc2ccn[nH]2)s1 [Example 56, N-[(2Z)-5-tert-butyl-3-[(2R)-tetrahydrofuran-2-ylmethyl]-1,3-thiazol-2(3H)-ylidene]-2-(1H-pyrazol-5-ylmethoxy)-5-(trifluoromethyl)benzamide]",5.1 nM,0.76 nM,11 nM,3.05 µM,,
"CN1CCCC[C@@H]1COc1ccc(C(F)(F)F)cc1C(=O)/N=c1\sc(C(C)(C)C)cn1C[C@H]1CCCO1 [Example 7, N-[(2Z)-5-tert-butyl-3-[(2R)-tetrahydrofuran-2-ylmethyl]-1,3-thiazol-2(3H)-ylidene]-2-{[(2R)-1-methylpiperidin-2-yl]methoxy}-5-(trifluoromethyl)benzamide]",19 nM,0.38 nM,33 nM,4.7 µM,,
"CC(C)(C)c1cn(C[C@H]2CCCO2)/c(=N/C(=O)c2cc(C(F)(F)F)ccc2OC[C@H](N)CO)s1 [Example 69, 2-{[(2R)-2-amino-3-hydroxypropyl]oxy}-N-[(2Z)-5-tert-butyl-3-[(2R)-tetrahydrofuran-2-ylmethyl]-1,3-thiazol-2(3H)-ylidene]-5-(trifluoromethyl)benzamide]",0.9 nM,0.14 nM,,1.61 µM,,3.6 nM
"CC(C)(C)c1cn(C[C@H]2CCCO2)/c(=N/C(=O)c2cc(C(F)(F)F)ccc2OC[C@H]2CCCO2)s1 [Example 22, N-[(2Z)-5-tert-butyl-3-[(2R)-tetrahydrofuran-2-ylmethyl]-1,3-thiazol-2(3H)-ylidene]-2-[(2R)-tetrahydrofuran-2-ylmethoxy]-5-(trifluoromethyl)benzamide]",0.5 nM,,3 nM,3.23 µM,0.07 nM,

# Reference: US8846730B2, “Compounds as cannabinoid receptor ligands” (priority 2008, dated 2014)
